MIC80 data for 15 molecules are collected here from US12570647B2 (Saint Louis University, priority 2021, dated 2026).

Values after ≈ are worked out from the molar mass of the structure shown.

In this experiment the test system is S. aureus ATCC25923. Nature of the experiment: S. aureus MIC80 determination, broth microdilution (CLSI) in CAMHB. In kind it is cell-based. To be noted: Staphylococcus aureus, ATCC25923; Table 1; S. aureus ATCC 25923; growth inhibition ≥80% vs vehicle, 16-24 h; read-out: ATCC 25923 MIC80. As to the method: S. Aureus MIC80 determinations in S. aureus ATCC25923 or in multidrug-resistant strains AR215, AR217 and AR255. MIC80's were determined by the broth microdilution method recommended by the Clinical and Laboratory Standards Institute (CLSI) in Cation-adjusted Mueller-Hinton broth (CAMHB). (Cao et al., 2018). In the preliminary screening, three compound concentrations were used: 5.8, 20.4, and 71.4 μM; for quantitative MIC80 measurements, a 1.5-fold dilution series of the compounds was prepared in CAMHB. Overnight bacterial culture was added to the diluted compounds in a 96-well plate after adjusting the bacterial concentration to achieve a 5×10^5 CFU/mL final concentration. After 16-24 h incubation at 35±2° C., the plates were read at 600 nm in a microplate reader. The MIC80 was defined as the concentration of an antibacterial agent that inhibited bacteria growth ≥80% compared to vehicle-treated control cultures. All values were determined at least twice independently, and the average number is reported.
On the technique in general: Broth dilution looks for growth in wells or tubes with falling amounts of substance.
Regarding `Cc1cc(Cl)cc2sc(NCCCn3ccnc3)nc12` [Example 1, N-(3-(1H-imidazol-1-yl)propyl)-6-chloro-4-methylbenzo[d]thiazol-2-amine], the MIC80 came out at 19.8 µM (≈ 6.08 µg/mL).

For the molecule `Cc1cc(Cl)cc2sc(N(CCCn3ccnc3)C(=O)c3ccco3)nc12` [Example 2, N-(3-(1H-imidazol-1-yl)propyl)-N-(6-chloro-4-methylbenzo[d]thiazol-2-yl)furan-2-carboxamide], the MIC80 turned out to be 1.7 µM (≈ 0.682 µg/mL).

Regarding `Cc1cc(Cl)cc2sc(N(CCCn3ccnc3)C(=O)c3ccccc3)nc12` [Example 3, N-(3-(1H-imidazol-1-yl)propyl)-N-(6-chloro-4-methylbenzo[d]thiazol-2-yl)benzamide], the MIC80 stood at 3.9 µM (≈ 1.6 µg/mL).

On to `Cc1cc(Cl)cc2sc(N(CCCn3ccnc3)C(=O)c3ccccn3)nc12` [Example 5, N-(3-(1H-imidazol-1-yl)propyl)-N-(6-chloro-4-methylbenzo[d]thiazol-2-yl)picolinamide], for which the MIC80 worked out at 8.8 µM (≈ 3.62 µg/mL).

For `Cc1cc(Cl)cc2sc(N(CCCn3ccnc3)C(=O)/C=C/c3ccco3)nc12` [Example 6, (E)-N-(3-(1H-imidazol-1-yl)propyl)-N-(6-chloro-4-methylbenzo[d]thiazol-2-yl)-3-(furan-2-yl)acrylamide], the MIC80 worked out at 2.6 µM (≈ 1.11 µg/mL).

Regarding `Cc1cc(Cl)cc2sc(N(CCCn3ccnc3)C(=O)c3ccoc3)nc12` [Example 7, N-(3-(1H-imidazol-1-yl)propyl)-N-(6-chloro-4-methylbenzo[d]thiazol-2-yl)furan-3-carboxamide], the MIC80 worked out at 2.6 µM (≈ 1.04 µg/mL).

Regarding `Cc1cc(Cl)cc2sc(N(CCCn3ccnc3)C(=O)C3CCCC3)nc12` [Example 8, N-(3-(1H-imidazol-1-yl)propyl)-N-(6-chloro-4-methylbenzo[d]thiazol-2-yl)cyclopentanecarboxamide], the MIC80 came to 3.9 µM (≈ 1.57 µg/mL).

With `Cc1ccc(C(=O)N(CCCn2ccnc2)c2nc3c(C)cc(Cl)cc3s2)s1` [Example 9, N-(3-(1H-imidazol-1-yl)propyl)-N-(6-chloro-4-methylbenzo[d]thiazol-2-yl)-5-methylthiophene-2-carboxamide], the MIC80 was 2.6 µM (≈ 1.12 µg/mL).

In the case of `Cc1cc(Cl)cc2sc(N(CCCn3ccnc3)C(=O)C3CC3)nc12` [Example 10, N-(3-(1H-imidazol-1-yl)propyl)-N-(6-chloro-4-methylbenzo[d]thiazol-2-yl)cyclopropanecarboxamide], the MIC80 stood at 1.7 µM (≈ 0.637 µg/mL).

`Cc1cc(Cl)cc2sc(N(CCCn3ccnc3)C(=O)C(C)C)nc12` [Example 11, N-(3-(1H-imidazol-1-yl)propyl)-N-(6-chloro-4-methylbenzo[d]thiazol-2-yl)isobutyramide]: the MIC80 is 2.7 µM (≈ 1.02 µg/mL).

Regarding `Cc1cc(Cl)cc2sc(N(CCCn3ccnc3)C(=O)c3ccc(C(=O)O)cc3)nc12` [Example 12, 4-((3-(1H-imidazol-1-yl)propyl)(6-chloro-4-methylbenzo[d]thiazol-2-yl)carbamoyl)benzoic acid], the MIC80 was more than 100 µM.

With `Cc1cc(Cl)cc2sc(N(CCCn3ccnc3)C(=O)c3cc4ccccc4o3)nc12` [Example 13, N-(3-(1H-imidazol-1-yl)propyl)-N-(6-chloro-4-methylbenzo[d]thiazol-2-yl)benzofuran-2-carboxamide], the MIC80 was determined as 8.8 µM (≈ 3.97 µg/mL).

Take `Cc1cc(Cl)cc2sc(N(CCCn3ccnc3)C(=O)C3CCCO3)nc12` (stereo not drawn) [Example 14, N-(3-(1H-imidazol-1-yl)propyl)-N-(6-chloro-4-methylbenzo[d]thiazol-2-yl)tetrahydrofuran-2-carboxamide]: the MIC80 is 29.6 µM (≈ 12 µg/mL).

Take `Cc1cc(C(=O)N(CCCn2ccnc2)c2nc3c(C)cc(Cl)cc3s2)oc1C` [Example 16, N-(3-(1H-imidazol-1-yl)propyl)-N-(6-chloro-4-methylbenzo[d]thiazol-2-yl)-4,5-dimethylfuran-2-carboxamide]: the MIC80 worked out at 3.9 µM (≈ 1.67 µg/mL).

On to `Cc1cc(Cl)cc2sc(N(CCCn3ccnc3)C(=O)C3CCC3)nc12` [Example 17, N-(3-(1H-imidazol-1-yl)propyl)-N-(6-chloro-4-methylbenzo[d]thiazol-2-yl)cyclobutanecarboxamide], for which the MIC80 worked out at 2.6 µM (≈ 1.01 µg/mL).

Usually MIC80 stands for the lowest concentration that inhibits either 80% of growth or 80% of the strains tested, depending on the study.
